Data reported in patent US20260098017A1, “NOVEL AROMATIC RING DERIVATIVE CONTAINING AMIDE SUBSTITUTION AND USE THEREOF” (TIANJIN PHARMACEUTICAL BIOTECHNOLOGY CO., LTD., priority 2022, published 2026).
Where two headings read alike, the source gives them in different places. Marks after values point to notes of the source that are not given here.

How the values were obtained:
[1] = tested on: imiquimod-induced mouse psoriasis-like model; test: Imiquimod-induced mouse psoriasis-like model (PASI score); format: in vivo; conditions: bid; for Improvement of psoriasis symptoms by oral administration: oral gavage, 10 mg/kg, 25 mg/kg, 50 mg/kg, compared with the model group
hERG channel = biological target: T1, hERG channel (Homo sapiens, UniProt Q12809); test: hERG potassium channel inhibition assay (manual patch clamp); format: cell-based; conditions: HEK-293 cell line stably expressing hERG channel, at the tested concentrations
T1 construct: expressed in transfected cells; host or cells: HEK-293
T1 sequence (Q12809 whole entry): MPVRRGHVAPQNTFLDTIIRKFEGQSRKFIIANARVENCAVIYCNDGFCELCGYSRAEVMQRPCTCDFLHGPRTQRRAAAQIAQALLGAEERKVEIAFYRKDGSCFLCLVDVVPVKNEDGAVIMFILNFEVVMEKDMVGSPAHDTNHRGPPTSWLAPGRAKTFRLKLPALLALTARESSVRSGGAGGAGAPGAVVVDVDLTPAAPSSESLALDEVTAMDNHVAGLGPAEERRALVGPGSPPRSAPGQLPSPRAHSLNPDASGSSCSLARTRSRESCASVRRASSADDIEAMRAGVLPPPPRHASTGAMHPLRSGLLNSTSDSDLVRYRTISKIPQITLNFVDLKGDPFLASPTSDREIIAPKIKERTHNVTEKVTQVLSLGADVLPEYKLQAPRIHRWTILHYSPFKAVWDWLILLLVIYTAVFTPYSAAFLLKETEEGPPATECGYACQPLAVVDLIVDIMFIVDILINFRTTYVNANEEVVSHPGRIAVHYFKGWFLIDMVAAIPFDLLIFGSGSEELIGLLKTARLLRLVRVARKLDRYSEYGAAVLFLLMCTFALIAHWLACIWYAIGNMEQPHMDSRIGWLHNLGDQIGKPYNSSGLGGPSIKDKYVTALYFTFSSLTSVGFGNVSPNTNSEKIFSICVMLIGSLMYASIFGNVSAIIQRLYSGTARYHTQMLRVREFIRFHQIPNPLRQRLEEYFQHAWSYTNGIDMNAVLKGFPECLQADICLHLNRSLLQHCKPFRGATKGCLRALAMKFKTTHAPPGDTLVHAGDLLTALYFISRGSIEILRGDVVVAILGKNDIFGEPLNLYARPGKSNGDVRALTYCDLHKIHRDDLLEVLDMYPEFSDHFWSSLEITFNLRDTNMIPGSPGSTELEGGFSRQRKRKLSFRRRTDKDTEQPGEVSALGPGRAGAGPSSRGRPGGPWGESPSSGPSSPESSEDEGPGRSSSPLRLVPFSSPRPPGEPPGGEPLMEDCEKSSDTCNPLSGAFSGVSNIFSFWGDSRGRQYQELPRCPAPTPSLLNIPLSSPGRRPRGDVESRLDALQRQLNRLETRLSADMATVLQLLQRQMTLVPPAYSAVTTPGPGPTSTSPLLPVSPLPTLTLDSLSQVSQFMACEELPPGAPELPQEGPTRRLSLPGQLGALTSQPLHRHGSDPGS
Method: Instrumentation: HEKA EPC 10 patch clamp amplifier.
Method: in this experiment, the blocking effect of the compounds on the current of the HEK-293 cell line stably expressing hERG channel was measured using the manual patch clamp technique, and the risk of the compounds on the inhibition of cardiac hERG potassium channel was assessed by fitting the concentration effect relationship.
Procedure: in the patch clamp operation, firstly, a capillary glass tube was pulled into a recording electrode using a microelectrode puller, then an electrode filled with intracellular solution was mounted into a microelectrode holder. A microelectrode manipulator was operated under an inverted microscope to immerse the electrode into an extracellular solution and the electrode resistance (Rpip) was recorded. Then, the electrode was slowly brought into contact with the cell surface, and a negative pressure was applied for suction to form a GΩ seal. At this point, a fast capacitance compensation was performed, and a negative pressure was continuously applied to suck and break the cell membrane to form a whole cell recording mode. Finally, a slow capacitance compensation was performed and experimental parameters including series resistance (Rs) and the like were recorded. No leakage compensation was performed. When the hERG current recorded by the whole cell was stable, the administration of drugs commenced, and each drug concentration acted for about 5 min (or until the current stabilization) before detecting the next concentration. A cover glass covered with cells was placed in a recording bath under an inverted microscope, the blank control extracellular solution and the working solution of the compounds to be tested sequentially flowed through the recording bath from low concentration to high concentration by using gravity perfusion to act on the cells, and solution exchange was performed using a peristaltic pump during recording. The current measured by each cell in the extracellular solution without the compound served as its own control group. Each concentration was independently assessed twice. All electrophysiological tests were performed at room temperature.
Data Analysis: firstly, the tail current (Peak tail currentcompound) after the action of each drug concentration and the blank control tail current (Peak tail currentcontrol) were normalized, then the inhibition rate
corresponding to each drug concentration was calculated, and the mean (Mean), standard deviation (SD) and standard error (SE) of the inhibition rate corresponding to each concentration were calculated, with data expressed as Mean±SE. The calculation of IC50 value and the fitting of dose-response curve for the compound were performed using GraphPad Prism software.

[2] = biological target: Ba/F3 cell line expressing TYK2 (Homo sapiens, UniProt P29597, cells depend on it, form not given); test: In vitro cellular inhibition assay (Ba/F3 cell proliferation, CellTiter-Glo); format: cell-based; conditions: read-out: IC50 (the source's name)
In short: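 Ba/F3 cells dependent on TYK2 were exposed to serially diluted compound, then viability was read by CellTiter-Glo luminescence. Inhibition (%) was calculated from RLU relative to max and min controls, and IC50 was obtained by curve fitting.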

TYK2 JH1 kinase = biological target: T2, TYK2 JH1 kinase (Homo sapiens, UniProt P29597); test: TYK2 JH1 enzyme assay in vitro (TR-FRET); format: biochemical
T2 sequence (P29597 897-1176 limits assumed): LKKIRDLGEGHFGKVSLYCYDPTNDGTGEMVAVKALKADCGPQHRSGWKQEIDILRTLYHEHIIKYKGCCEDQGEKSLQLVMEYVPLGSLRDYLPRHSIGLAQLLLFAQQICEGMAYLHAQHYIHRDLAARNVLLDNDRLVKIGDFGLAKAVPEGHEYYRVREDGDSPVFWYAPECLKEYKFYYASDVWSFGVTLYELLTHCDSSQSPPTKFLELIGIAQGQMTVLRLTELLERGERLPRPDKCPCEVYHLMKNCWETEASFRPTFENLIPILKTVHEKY

JAK2 JH1 kinase = JAK2 JH1 kinase (Homo sapiens, UniProt O60674); test: JAK2 JH1 enzyme assay in vitro (TR-FRET); format: biochemical; conditions: read-out: JAK 2 JH1 IC50
Chain of JAK2 JH1 kinase (O60674 849-1124 limits assumed): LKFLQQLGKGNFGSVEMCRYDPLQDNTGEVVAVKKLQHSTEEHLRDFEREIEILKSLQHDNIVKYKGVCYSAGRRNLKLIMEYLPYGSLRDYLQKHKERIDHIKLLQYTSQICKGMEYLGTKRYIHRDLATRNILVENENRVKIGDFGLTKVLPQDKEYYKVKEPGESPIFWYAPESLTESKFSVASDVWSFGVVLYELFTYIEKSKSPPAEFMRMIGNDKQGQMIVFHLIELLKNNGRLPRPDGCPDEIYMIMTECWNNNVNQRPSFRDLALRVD

TYK2 JH2 pseudokinase = TYK2 JH2 pseudokinase (Homo sapiens, UniProt P29597); test: TYK2 JH2 enzyme binding assay in vitro (TR-FRET)
Chain of TYK2 JH2 pseudokinase (P29597 589-875 limits assumed): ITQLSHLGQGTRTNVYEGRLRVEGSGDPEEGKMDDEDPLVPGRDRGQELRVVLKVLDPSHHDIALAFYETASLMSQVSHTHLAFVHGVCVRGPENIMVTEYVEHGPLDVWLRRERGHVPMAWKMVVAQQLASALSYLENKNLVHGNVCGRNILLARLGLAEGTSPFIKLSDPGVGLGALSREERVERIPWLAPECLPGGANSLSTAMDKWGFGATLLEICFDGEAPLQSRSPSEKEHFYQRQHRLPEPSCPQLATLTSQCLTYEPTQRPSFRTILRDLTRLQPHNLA
Method: Instrumentation: Envision microplate reader (PerkinElmer), ECHO550 (LABCYTE).
Method: the inhibitory effects of compounds on TYK2 JH2 pseudokinase was tested using time-resolved fluorescence resonance energy transfer (TR-FRET) method.
Procedure: compounds were prepared into 10 mM stock solutions using DMSO, which were further diluted into compound dilutions (200×) with different concentration gradients in DMSO, and the compound dilutions (200×) were transferred to a 384-well assay plate using an Echo instrument. […] TYK2 JH2 pseudokinase, Tb antibody, and Tracer working solutions were prepared using the dilution buffer, respectively. 5 uL of TYK2 JH2 pseudokinase working solution (final concentration 0.5 nM) was added to a 384-well assay plate, and centrifuged at 1000 rpm for 30 s. 5 uL of Tb antibody (final concentration 1×) was added to the 384-well assay plate, and centrifuged at 1000 rpm for 30 s. 5 uL of Tracer (final concentration 0.5 nM) was added to the 384-well assay plate, and centrifuged at 1000 rpm for 30 s. Incubation was performed at room temperature for 60 min, and then at 4° C. overnight.
Data Analysis: XLfit, a software developed by IDBS and integrated into the Microsoft Excel environment, was used to process and analyze the test data.

JAK1 JH2 pseudokinase = JAK1 JH2 pseudokinase (Homo sapiens, UniProt P23458); test: JAK1 JH2 enzyme binding assay in vitro (TR-FRET); conditions: read-out: JAK 1 JH2 IC50
Chain of JAK1 JH2 pseudokinase (P23458 583-855 limits assumed): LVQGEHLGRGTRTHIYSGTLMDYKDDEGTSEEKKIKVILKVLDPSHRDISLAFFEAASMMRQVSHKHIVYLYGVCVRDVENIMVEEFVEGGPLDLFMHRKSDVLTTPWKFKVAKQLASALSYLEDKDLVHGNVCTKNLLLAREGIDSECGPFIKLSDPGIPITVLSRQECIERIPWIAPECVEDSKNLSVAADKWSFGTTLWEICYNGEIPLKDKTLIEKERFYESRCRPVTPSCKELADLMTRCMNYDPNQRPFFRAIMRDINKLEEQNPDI
Method: Instrumentation: Envision microplate reader (PerkinElmer), Echo (LABCYTE)
Method: in this experiment, the inhibitory effects of compounds on JAK1 JH2 pseudokinase was tested using time-resolved fluorescence resonance energy transfer (TR-FRET) method.
Procedure: compounds were prepared into 10 mM stock solutions using DMSO, which were further diluted into compound dilutions with different concentration gradients in DMSO, and the compound dilutions with 200× final concentration were transferred to a 384-well assay plate using an Echo instrument. The preparation of the following 1× assay working solution: HEPES pH7.5 at a final concentration of 20 mM, MgCl2 at a final concentration of 10 mM, Brij-35 at a final concentration of 0.015%, DTT at a final concentration of 2 mM, BSA at a final concentration of 50 ug/mL. JAK1 JH2 pseudokinase with 3× final concentration, Tb antibody and Tracer were prepared using their respective 1× working solution. 5 uL of JAK1 JH2 pseudokinase was added to a 384-well assay plate, and centrifuged at 1000 rpm for 30 s. 5 uL of Tb antibody was added to the 384-well assay plate, and centrifuged at 1000 rpm for 30 s. 5 uL of Tracer was added to the 384-well assay plate, and centrifuged at 1000 rpm for 30 s. Incubation was performed at room temperature for 60 min, and then at 4° C. overnight. Finally, the 495 nm/520 nm fluorescence signal ratio was measured using the Envision microplate reader (PerkinElmer).
Data Analysis: XLfit, a software developed by IDBS and integrated into the Microsoft Excel environment, was used to process and analyze the test data. […] Thereafter, the concentration and corresponding inhibition rate data were imported into the XLfit software, and the Dose Response One Site 205 model within the software was employed to fit the inhibition rate-concentration curve by four-parameter method, and the IC50 value of the compound was calculated.

JAK3 JH1 kinase = JAK3 JH1 kinase (Homo sapiens, UniProt P52333); test: JAK3 JH1 enzyme assay in vitro (TR-FRET); format: biochemical
Chain of JAK3 JH1 kinase (P52333 822-1111 limits assumed): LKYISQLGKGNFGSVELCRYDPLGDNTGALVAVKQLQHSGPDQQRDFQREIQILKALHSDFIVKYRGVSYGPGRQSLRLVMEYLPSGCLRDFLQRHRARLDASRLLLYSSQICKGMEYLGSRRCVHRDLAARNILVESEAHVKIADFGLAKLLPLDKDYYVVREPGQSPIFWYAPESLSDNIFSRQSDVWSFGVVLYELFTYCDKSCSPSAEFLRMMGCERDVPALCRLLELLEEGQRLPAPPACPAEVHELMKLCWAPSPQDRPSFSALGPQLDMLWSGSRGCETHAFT

JAK1 JH1 kinase = JAK1 JH1 kinase (Homo sapiens, UniProt P23458); test: JAK1 JH1 enzyme assay in vitro (TR-FRET); format: biochemical; conditions: read-out: JAK 1 JH1 IC50
Chain of JAK1 JH1 kinase (P23458 875-1153 limits assumed): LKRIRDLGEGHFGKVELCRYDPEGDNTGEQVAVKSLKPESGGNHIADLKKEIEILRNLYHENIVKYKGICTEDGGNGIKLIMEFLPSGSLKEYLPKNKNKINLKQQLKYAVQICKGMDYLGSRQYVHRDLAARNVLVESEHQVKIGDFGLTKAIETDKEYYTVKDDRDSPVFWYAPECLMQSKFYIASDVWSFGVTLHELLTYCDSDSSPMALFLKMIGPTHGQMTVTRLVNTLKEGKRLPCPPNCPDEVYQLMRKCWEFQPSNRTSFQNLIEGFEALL

SD rats = test: Four-week repeat-dose toxicity study in rats; format: in vivo; conditions: rat, 28 days, po bid, 50 mg/kg
Method: Each group contained 10 animals, with an equal number of males and females.
The treatment lasted for four consecutive weeks (28 days).
• Daily clinical observation and body weight measurement; • After the last administration, rats were fasted for more than 16 h, anesthetized on the next day, and blood was collected from abdominal aorta. Tests such as hematology (EDTA-2K anticoagulation), blood biochemistry (serum), coagulation function (separated plasma with sodium citrate anticoagulation) and the like were respectively carried out; • After euthanization of the animals, the tissue organs were dissected and observed in general, and organ weights and coefficients (heart, liver, spleen, kidney, thymus) were determined; • The skin and lung tissues of the administration site were taken for HE staining to observe the changes in epidermal thickness, dermal inflammatory cells and pulmonary lesions.

[3] = TR-FRET, read-out: JAK 3 JH1 IC50

Compound | Improvement of psoriasis symptoms by oral administration [1] | hERG inhibition (hERG channel) | GI50 [2] [nM] | IC50 (TYK2 JH1 kinase) [nM] | IC50 (JAK2 JH1 kinase) [nM] | IC50 (TYK2 JH2 pseudokinase) [nM] | IC50 (JAK1 JH2 pseudokinase) [nM] | IC50 (JAK3 JH1 kinase; [3]) [nM] | IC50 (JAK1 JH1 kinase) [nM] | Percentage reduction in PASI score % ([1]; day 7, 10 mg/kg, oral, day 1 to 6) | Hematology Gran (SD rats) | Hematology Lymph (SD rats) | Hematology Mono (SD rats) | IC50 (JAK3 JH1 kinase) [nM]
[2H]C([2H])([2H])NC(=O)c1nnc(NC(=O)C2CC2)cc1Nc1cccc(C(=O)Nc2cnn(C)c2)c1OC [Example 34] | effectively improve psoriasis symptoms | no significant inhibition | 1 to 5 | > 10000 | > 10000 | 0.341 | 4.16 | > 10000 | > 10000 | – | – | – | – | –
[2H]C([2H])([2H])NC(=O)c1cnc(NC(=O)C2CC2)cc1Nc1cccc(C(=O)Nc2ccc(C)cc2)c1OC [Example 54] | effectively improve psoriasis symptoms | no significant inhibition | 1 to 5 | > 10000 | > 10000 | 0.302 | 4.56 | > 10000 | > 10000 | – | – | – | – | –
[2H]C([2H])([2H])NC(=O)c1nnc(NC(=O)C2CC2)cc1Nc1cccc(-c2ncn(C)n2)c1OC([2H])([2H])[2H] [BMS-986165, reference compound] | – | – | – | – | – | – | – | – | – | 30.1** % | 1.6 ± 0.6 ×10^9/L | 3.6 ± 0.8 ×10^9/L | 0.2 ± 0.0 ×10^9/L | > 10000
[2H]C([2H])([2H])NC(=O)c1cnc(NC(=O)C2CC2)cc1Nc1cccc(C(=O)Nc2cncc(C)c2)c1OC [Example 91] | effectively improve psoriasis symptoms | no significant inhibition | 1 to 5 | > 10000 | > 10000 | 0.312 | 3.29 | > 10000 | > 10000 | – | – | – | – | –
[2H]C([2H])([2H])NC(=O)c1nnc(NC(=O)C2CC2)cc1Nc1cccc(C(=O)Nc2ccc(F)cc2)c1OC [Example 5] | effectively improve psoriasis symptoms | no significant inhibition | 1 to 5 | > 10000 | > 10000 | 0.281 | 6.93 | > 10000 | > 10000 | – | – | – | – | –
